One test concerns the target T1, Recombinant IKKβ (Homo sapiens, UniProt O14920).
T1 construct: purchased Millipore, Dundee, UK
T1 sequence (O14920 1-756): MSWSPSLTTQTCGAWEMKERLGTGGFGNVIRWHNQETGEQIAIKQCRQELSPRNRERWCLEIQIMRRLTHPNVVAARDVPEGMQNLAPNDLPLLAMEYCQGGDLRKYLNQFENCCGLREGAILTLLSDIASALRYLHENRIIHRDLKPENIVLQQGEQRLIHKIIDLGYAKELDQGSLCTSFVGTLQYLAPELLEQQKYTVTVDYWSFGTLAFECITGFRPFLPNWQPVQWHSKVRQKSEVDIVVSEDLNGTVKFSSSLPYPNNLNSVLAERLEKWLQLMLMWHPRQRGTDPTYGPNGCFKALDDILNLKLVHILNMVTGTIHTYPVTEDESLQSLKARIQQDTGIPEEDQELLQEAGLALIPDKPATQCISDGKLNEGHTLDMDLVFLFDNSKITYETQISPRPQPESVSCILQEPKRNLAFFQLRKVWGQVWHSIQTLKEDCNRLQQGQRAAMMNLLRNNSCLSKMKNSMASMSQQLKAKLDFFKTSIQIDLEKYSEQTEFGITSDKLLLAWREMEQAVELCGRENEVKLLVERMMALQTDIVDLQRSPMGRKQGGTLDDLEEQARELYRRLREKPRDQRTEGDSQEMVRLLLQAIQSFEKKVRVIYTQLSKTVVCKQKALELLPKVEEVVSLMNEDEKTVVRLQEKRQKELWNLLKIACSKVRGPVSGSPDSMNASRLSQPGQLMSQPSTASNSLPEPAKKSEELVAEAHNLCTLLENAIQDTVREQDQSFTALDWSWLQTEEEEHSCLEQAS
As to the kind of experiment: DELFIA IKKβ kinase assay (apparent Ki, Cheng-Prusoff). The class given is biochemical. The conditions noted are these: DELFIA assay (first line of an example). The essentials: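 DELFIA time-resolved fluorescence (ex 340/em 615 nm) quantified phosphorylation of a biotinylated IκB-α Ser32 peptide (0.375 μM) by 37 nM recombinant IKKα or IKKβ. Reactions used 40 μM ATP, Tris pH 7.5 buffer with MgCl2, DTT and BSA, 60 min at 30° C. Cheng-Prusoff equation gave apparent Ki.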

The target in a further test is T2, IKBKB (IKKβ) (Homo sapiens, UniProt O14920).
T2 construct: purchased Life Technologies (assay performed by the vendor)
T2 sequence (O14920 1-756): T1 sequence (O14920 1-756)
Briefly: Z'-LYTE IKKβ assay (Life Technologies). The format is biochemical. Here is the method:
IKKα and IKKβ inhibitory activity was determined using three different assays: a dissociation enhanced ligand fluorescent immunoassay (DELFIA) based on the protocol of HTScan™ IKKβ Kinase Assay (Cell Signaling Technology, USA); an Adapta IKKα assay (performed by Life Technologies); a Z′-LYTE™ IKKβ assay (performed by Life Technologies).
The reaction was performed in low volume NBS, black 384-well plates (Corning model 4514).
The test compounds were screened in 1% DMSO (final) in the well. For 10 point titrations, 3-fold serial dilutions were conducted from the starting concentration of 50 mM.
The 2× IKBKB (IKKβ)/Ser/Thr 05 mixture was prepared in 50 mM HEPES pH 7.5, 0.01% BRIJ-35, 10 mM MgCl2, 1 mM EGTA. The final 10 μL Kinase Reaction consisted of 0.62-4 ng IKBKB (IKKβ) and 2 μM Ser/Thr 05 in 50 mM HEPES pH 7.5, 0.01% BRIJ-35, 10 mM MgCl2, 1 mM EGTA.
5 μL of 2× Kinase reaction was incubated with 2.5 μL of ATP solution diluted to a 4× working concentration in Kinase Buffer (50 mM HEPES pH 7.5, 0.01% BRIJ-35, 10 mM MgCl2, 1 mM EGTA) in the presence of […] of 100× test compound in 100% DMSO and 2.4 μL of Kinase buffer.
The resulting kinase reaction was allowed to incubate for 1 hour at room temperature before 5 μL of a 1:64 dilution of Development Reagent B was added and the resulting Development Reaction was incubated for another hour at room temperature. Then the plate was read on a fluorescence plate reader and the data analysed.
A ratiometric method, which calculated the Emission Ratio of donor emission (i.e. coumarin) to acceptor emission (i.e. fluorescein) after excitation of the donor fluorophore at 400 nm, was used to quantitate reaction progress, as shown in the equation below.

As usually defined, the IC50 is the point on the concentration scale where inhibition reaches its midpoint. The low end stands for inhibition by little substance, the high end for a need for much substance.

As for `Nc1n[nH]c2c(C#CCCCN3CCCCC3)cc(-c3ccnc4[nH]ccc34)cc12` [Example 212, 7-(5-(Piperidin-1-yl)pent-1-yn-1-yl)-5-(1H-pyrrolo[2,3-b]pyridin-4-yl)-1H-indazol-3-amine], at Recombinant IKKβ, the Ki amounted to 2370 nM. Also, half-maximal inhibition on IKBKB (IKKβ) (IC50) was put at 1140 nM.
In the case of `Nc1n[nH]c2ccc(-c3ccnc4[nH]c(C5CC5)cc34)cc12` [Example 218, 5-(2-Cyclopropyl-1H-pyrrolo[2,3-b]pyridin-4-yl)-1H-indazol-3-amine], on Recombinant IKKβ, the Ki worked out at 63 nM. Also, at IKBKB (IKKβ), inhibition was half-maximal at 17 nM (IC50).
For `Nc1n[nH]c2ccc(-c3ccnc4[nH]c(C5CCCCC5)cc34)cc12` [Example 219, 5-(2-Cyclohexyl-1H-pyrrolo[2,3-b]pyridin-4-yl)-1H-indazol-3-amine], on Recombinant IKKβ, the Ki came to 461 nM. Further, on IKBKB (IKKβ), it took 280 nM to reach half-maximal inhibition (IC50).
For the compound `CC(C)(C)Cc1cc2c(-c3ccc4[nH]nc(N)c4c3)ccnc2[nH]1` [Example 220, 5-(2-Neopentyl-1H-pyrrolo[2,3-b]pyridin-4-yl)-1H-indazol-3-amine], the Ki on Recombinant IKKβ worked out at 838 nM. At IKBKB (IKKβ), this compound gave a concentration for half-maximal inhibition (IC50) of 483 nM.
With `Nc1n[nH]c2ccc(-c3ccnc4[nH]c(CC5CCCCC5)cc34)cc12` [Example 221, 5-(2-(Cyclohexylmethyl)-1H-pyrrolo[2,3-b]pyridin-4-yl)-1H-indazol-3-amine], the Ki at Recombinant IKKβ was found to be 461 nM. This compound also gave a half-inhibitory concentration (IC50) at IKBKB (IKKβ) of 655 nM.
Turning to `Nc1n[nH]c2ccc(-c3ccnc4[nH]c(CCC5CCCCC5)cc34)cc12` [Example 222, 5-(2-(2-Cyclohexylethyl)-1H-pyrrolo[2,3-b]pyridin-4-yl)-1H-indazol-3-amine], the Ki on Recombinant IKKβ amounted to 134 nM. At IKBKB (IKKβ), this compound returned a 50% inhibitory concentration (IC50) of 268 nM.
Consider `Nc1n[nH]c2ccc(-c3ccnc4[nH]c(CO)cc34)cc12` [Example 224], for which the Ki on Recombinant IKKβ was 503 nM. The compound further registered a 50% inhibitory concentration (IC50) on IKBKB (IKKβ) of 28 nM.
Regarding `CC(C)(C)OCc1cc2c(-c3ccc4[nH]nc(N)c4c3)ccnc2[nH]1` [Example 227, 5-(2-(tert-Butoxymethyl)-1H-pyrrolo[2,3-b]pyridin-4-yl)-1H-indazol-3-amine], the Ki at Recombinant IKKβ worked out at 754 nM. The compound further gave a half-inhibitory concentration (IC50) at IKBKB (IKKβ) of 388 nM.
For the compound `Nc1n[nH]c2ccc(-c3ccnc4[nH]c(C5CCOCC5)cc34)cc12` [Example 228, 5-(2-(tetrahydro-2H-pyran-4-yl)-1H-pyrrolo[2,3-b]pyridin-4-yl)-1H-indazol-3-amine], the Ki on Recombinant IKKβ was found to be 97 nM. The compound also showed an IC50 against IKBKB (IKKβ) of 32 nM.
Consider `Nc1n[nH]c2ccc(-c3ccnc4[nH]c(C5CCCCO5)cc34)cc12` (centres unmarked) [Example 229, 5-(2-(Tetrahydro-2H-pyran-2-yl)-1H-pyrrolo[2,3-b]pyridin-4-yl)-1H-indazol-3-amine], for which the Ki on Recombinant IKKβ turned out to be 272 nM. Moreover, the half-maximal inhibitory concentration (IC50) against IKBKB (IKKβ) came to 225 nM.
The corresponding values for `Nc1n[nH]c2ccc(-c3ccnc4[nH]c(CC5CCOCC5)cc34)cc12` [Example 230, 5-(2-((tetrahydro-2H-pyran-4-yl)methyl)-1H-pyrrolo[2,3-b]pyridin-4-yl)-1H-indazol-3-amine] are 260 nM and 60 nM.
On to `Nc1n[nH]c2ccc(-c3ccnc4[nH]c(C(=O)N5CCCC5)cc34)cc12` [Example 234, (4-(3-Amino-1H-indazol-5-yl)-1H-pyrrolo[2,3-b]pyridin-2-yl)(pyrrolidin-1-yl)methanone], for which the Ki on Recombinant IKKβ is 272 nM. The compound further gave an IC50 against IKBKB (IKKβ) of 790 nM.
Regarding `Nc1n[nH]c2ccc(-c3ccnc4[nH]c(C(=O)NC5CCCCC5)cc34)cc12` [Example 236, 4-(3-Amino-1H-indazol-5-yl)-N-cyclohexyl-1H-pyrrolo[2,3-b]pyridine-2-carboxamide], on Recombinant IKKβ, the Ki was found to be 79 nM. The compound further registered a concentration for half-maximal inhibition (IC50) against IKBKB (IKKβ) of 20 nM.
For `CN1CCN(C(=O)c2cc3c(-c4ccc5[nH]nc(N)c5c4)ccnc3[nH]2)CC1` [Example 243, (4-(3-Amino-1H-indazol-5-yl)-1H-pyrrolo[2,3-b]pyridin-2-yl)(4-methylpiperazin-1-yl)methanone], the Ki on Recombinant IKKβ stood at 1030 nM. 630 nM corresponded to half-maximal inhibition against IKBKB (IKKβ) (IC50).
Consider `CC(C)(C)NCc1cc2c(-c3ccc4[nH]nc(N)c4c3)ccnc2[nH]1` [Example 248, 5-(2-((tert-Butylamino)methyl)-1H-pyrrolo[2,3-b]pyridine-4-yl)-1H-indazol-3-amine], for which, at Recombinant IKKβ, the Ki is 4020 nM. Moreover, half-maximal inhibition against IKBKB (IKKβ) (IC50) was put at 1430 nM.
As to `Nc1n[nH]c2ccc(-c3ccnc4[nH]c(C5CCCCN5)cc34)cc12` (centres unmarked) [Example 250, 5-(2-(Piperidin-2-yl)-1H-pyrrolo[2,3-b]pyridine-4-yl)-1H-indazol-3-amine], the Ki at Recombinant IKKβ was more than 10000 nM. This compound also had an IC50 at IKBKB (IKKβ) of 810 nM.
The corresponding values for `Nc1n[nH]c2ccc(-c3ccnc4[nH]c(CNC5CCCCC5)cc34)cc12` [Example 251, 5-(2-((cyclohexylamino)methyl)-1H-pyrrolo[2,3-b]339yridine-4-yl)-1H-indazol-3-amine] are 1300 nM and 405 nM.
Take `CN(C)CCCNCc1cc2c(-c3ccc4[nH]nc(N)c4c3)ccnc2[nH]1` [Example 258, N^1-((4-(3-amino-1H-indazol-5-yl)-1H-pyrrolo[2,3-b]pyridin-2-yl)methyl)-N^3,N^3-dimethylpropane-1,3-diamine]: at Recombinant IKKβ, the Ki came to 1130 nM. The IC50 against IKBKB (IKKβ) came to 245 nM.
Taken in the same sequence, the figures for `CC(C)N(C)Cc1cc2c(-c3ccc4[nH]nc(N)c4c3)ccnc2[nH]1` [Example 259, 5-(2-((Isopropyl(methyl)amino)methyl)-1H-pyrrolo[2,3-b]pyridine-4-yl)-1H-indazol-3-amine] were 2140 nM and 790 nM.
The corresponding values for `Nc1n[nH]c2ccc(-c3ccnc4[nH]c(CN5CCCCC5)cc34)cc12` [Example 260, 5-(2-(Piperidin-1-ylmethyl)-1H-pyrrolo[2,3-b]pyridine-4-yl)-1H-indazol-3-amine] are 1720 nM and 454 nM.
Regarding `Nc1n[nH]c2ccc(-c3ccnc4[nH]c(CN5CCC(F)(F)CC5)cc34)cc12` [Example 261, 5-(2-((4,4-Difluoropiperidin-1-yl)methyl)-1H-pyrrolo[2,3-b]pyridine-4-yl)-1H-indazol-3-amine], the Ki at Recombinant IKKβ stood at 2390 nM. This compound also registered a half-inhibitory concentration (IC50) against IKBKB (IKKβ) of 286 nM.
Take `Nc1n[nH]c2ccc(-c3ccnc4[nH]c(CN5CCOCC5)cc34)cc12` [Example 262, 5-(2-(Morpholinomethyl)-1H-pyrrolo[2,3-b]pyridine-4-yl)-1H-indazol-3-amine]: the Ki on Recombinant IKKβ was 277 nM. This compound also showed a half-inhibitory concentration (IC50) at IKBKB (IKKβ) of 269 nM.
Taken in the same sequence, the figures for `CN1CCN(Cc2cc3c(-c4ccc5[nH]nc(N)c5c4)ccnc3[nH]2)CC1` [Example 263, 5-(2-((4-Methylpiperazin-1-yl)methyl)-1H-pyrrolo[2,3-b]pyridine-4-yl)-1H-indazol-3-amine] were 2430 nM and 300 nM.
The corresponding values for `Nc1n[nH]c2ccc(-c3ccnc4[nH]c(CN5CCCCCC5)cc34)cc12` [Example 265, 5-(2-(Azepan-1-ylmethyl)-1H-pyrrolo[2,3-b]pyridine-4-yl)-1H-indazol-3-amine] are 2510 nM and 350 nM.
For `CN1CCCN(Cc2cc3c(-c4ccc5[nH]nc(N)c5c4)ccnc3[nH]2)CC1` [Example 266, 5-(2-((4-Methyl-1,4-diazepan-1-yl)methyl)-1H-pyrrolo[2,3-b]pyridin-4-yl)-1H-indazol-3-amine], the Ki at Recombinant IKKβ stood at 1800 nM. The same compound registered a 50% inhibitory concentration (IC50) at IKBKB (IKKβ) of 380 nM.
